Experimental data as given in BindingDB's records for doi:10.1016/S0960-894X(97)00175-3 (1997).

Each compound was assayed against Squalene monooxygenase (Sus scrofa) (assay: In vitro inhibition of pig liver microsomal squalene epoxidase (SE) by measuring the extend of cholesterol radiolabeling after incubation with [14C]mevalonate).

SMILES	IC50 [nM]
CCN(CC#Cc1ccccc1)Cc1cccc(OCc2cc(-c3ccsc3)cs2)c1 [[3-([3,3']Bithiophenyl-5-ylmethoxy)-benzyl]-ethyl-(3-phenyl-prop-2-ynyl)-amine]	100
CCN(CC#Cc1ccccc1N=[N+]=[N-])Cc1cccc(OCc2cc(-c3ccsc3)cs2)c1 [[3-(2-Azido-phenyl)-prop-2-ynyl]-[3-([3,3']bithiophenyl-5-ylmethoxy)-benzyl]-ethyl-amine]	> 100000

Second part, the compound after the results:

IC50 [nM]	SMILES
520	CCN(C/C=C/C#CC(C)(C)C)Cc1cccc(OC[Si](C)(C)c2ccc(N=[N+]=[N-])cc2)c1 [(3-{[(4-Azido-phenyl)-dimethyl-silanyl]-methoxy}-benzyl)-(6,6-dimethyl-hept-2-en-4-ynyl)-ethyl-amine]
960	CCN(CC#Cc1ccc(N=[N+]=[N-])cc1)Cc1cccc(OCc2cc(-c3ccsc3)cs2)c1 [[3-(4-Azido-phenyl)-prop-2-ynyl]-[3-([3,3']bithiophenyl-5-ylmethoxy)-benzyl]-ethyl-amine]
270	CCN(CC#Cc1cccc(N=[N+]=[N-])c1)Cc1cccc(OCc2cc(-c3ccsc3)cs2)c1 [[3-(3-Azido-phenyl)-prop-2-ynyl]-[3-([3,3']bithiophenyl-5-ylmethoxy)-benzyl]-ethyl-amine]
